Laboratory results reported in patent US8859235B2, “Methods in cell cultures, and related inventions, employing certain additives” (priority 2009, dated 2014).

Columns and labels:
[1] = tested on: E. coli HM125; experiment: Growth and expression of FimH-CRD in E. coli HM125, shake flask cultivation in mineral medium; assay type: cell-based, Escherichia coli; conditions: for mg FimH/g cell: control 0.81; for FimH / Cell pellet: mean of triplicate; for FimH: control 6.48 ± 0.36; for Cell pellet: control 7.99 ± 0.25
Text: Standard molecular techniques are used for the cloning of the FimH carbohydrate recognition domain (FimH-CRD). The plasmid pfimHs-trc, encoding FimH lectin domain (1-156 amino acids M. Vetsch P et. al. 2002—J. Mol. Biol. 322: 827-840), is kindly provided by R. Glockshuber (ETH Zürich, Switzerland). The FimH-CRD fragment is amplified by polymerase chain reaction using specific forward primer containing the restriction site NdeI and a specific reverse primer containing the thrombin cleavage site and the restriction site XhoI, respectively. The insert is ligated into the corresponding cloning site in pET21b. The resulting contrast is named pET21b-FimH-CRD.
Precultures are prepared in 25 mL sterile LB medium [Tryptone (10.0 g/L), yeast extract (5.0 g/L), NaCl (10.0 g/L), ampicillin 100 (mg/L); adjusted to pH 7.0 with NaOH]. Cultures are inoculated with a glycerol stock stored at −80° C. of the protease deficient strain E. coli HM125 (Meerman H J & Georgiou G. 1994. Biotechnology (NY) 2, 1107-1110) harboring the plasmid pET21b-FimH-CRD Vector. Precultures are incubated at 37° C. for 10-12 h. Experimental cultures are performed in a volume of 500 mL of modified M9 medium [Na2HPO4×7H2O (12.8 g/L), KH2PO4 (3 g/L), NaCl (0.5 g/L), NH4Cl (1 g/L), D-glucose (4 g/L), MgSO4 (0.12 g/L), CaCl2 (0.01 g/L) and vitamins (in mg/L): riboflavin (0.1), choline chloride (1), folic Acid (1), niacinamide (1), p-amino benzoic acid (1), pyridoxal-HCl (1), thiamine-HCl (1), myo-lnositol (2)] supplemented with 100 mg/L ampicillin. Cultures are inoculated with 5 mL of the preoculture and grown at 30° C. and 150 rpm) until the optical density at 600 nm (0D600) reached 0.8-1.0. Then 1 mM IPTG and the stabilizer(s) (obligatory additive) according to the invention are added to final concentrations of 5, 10 and 20 mM as indicated from sterile stock solutions and the cultures are grown overnight. Then the cells are cooled on ice for 5 min and harvested by centrifugation at 5′000 rpm for 20 min at 4° C. Cell are harvested by centrifugation and biomass is quantified by weighing the wet cell pellets. The pellet is suspended in a cold solution of 50 mM Tris-HCl, pH 7.5, 150 mM NaCl, 5 mM EDTA, 1 mg/mL polymyxin B sulfate and stirred for two hours at 4° C. After centrifugation at 11′000 rpm for 20 min at 4° C., the supernatant (periplasmic extract) is dialyzed overnight against 50 mM NaH2PO4, 300 mM NaCl and 10 mM imidazole, pH 8 (binding buffer) and applied to a Ni-NTA column (Sigma, Buchs, Switzerland) attached to a BioLogic fast protein liquid chromatography system (BioRad, Reinach BL, Switzerland). The column is washed with binding buffer and afterwards eluted with 50 mM NaH2PO4, 300 mM NaCl and 250 mM imidazole, pH 8 (elution buffer). Fractions containing FimH-CRD-Th-6H is are pooled and dialyzed against water and then against 20 mM HEPES, 150 mM NaCl and 1 mM CaCl2, pH 7.4.
The concentration of protein is determined by HPLC method (Agilent 1100/1200 series) using BSA as standard (Sigma). The column Poros R1/10 10 μm (100×2 mm, Morvay Analytik) is kept at 60° C.; eluents are A: 0.1% trifluoroacetic acid (TFA) in H2O and B: 90% MeCN+0.09% TFA. A gradient of 20% B to 90% B is run within 20 min at a flow rate of 0.2 mL/min. The detection is monitored at 210 nm. Results are compiled in the following tables 5 and 6.

[2] = tested on: human cancer cells; conditions: due to SAPK and p38 MAPK signal pathway modulation; US 2004/024025; cited from earlier work

## CC1(C)CCCC(C)(C)N1[O] [TEMPO, 2,2,6,6-Tetramethyl-1-piperidinyloxy radical, reference compound]
[1]; additive 5 mM
  mg FimH/g cell: 1.14 mg FimH/g cell
  FimH: 8.85 ± 0.21 mg/L
  Cell pellet: 7.78 ± 0.45 g/L
[1]; additive 10 mM
  mg FimH/g cell: 1.15 mg FimH/g cell
  FimH: 8.61 ± 0.14 mg/L
  Cell pellet: 7.44 ± 0.32 g/L
[1]; additive 20 mM
  mg FimH/g cell: 1.26 mg FimH/g cell
  FimH: 8.26 ± 0.54 mg/L
  Cell pellet: 6.54 ± 0.2 g/L
[2]
  Apoptosis in human cancer cells: increased apoptosis
